Laboratory results reported in PubChem BioAssay AID248 (DTP/NCI, 2004).
Several values for one entry are separate records, joined by “and”; a condition that tells them apart may be missing. Identical values can stand only once. Toxic doses and inconclusive results are not listed. No stated cut-off is given here; in the data, active means T/C of 150% or more; inactive means T/C below 125%.

Test system: L1210 leukemia ip in BDF1 mice, survival T/C
Assay: NCI In Vivo Anticancer Drug Screen. Data for tumor model L1210 Leukemia (intraperitoneal) in B6D2F1 (BDF1) mice
Settings: endpoint: mean survival time, higher = longer survival
How it was run: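 Ratio derived from survival: compound-dosed mice over vehicle-dosed mice, all bearing a transplantable tumor.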

[1] = dose: 100.0 mg/kg/injection, schedule: Q04DX003 (ip), vehicle: Klucel (hydroxypropylcellulose) (HPC)
[2] = dose: 100.0 mg/kg/injection, schedule: Q01DX009 (ip), vehicle: Klucel (hydroxypropylcellulose) (HPC)
[3] = dose: 200.0 mg/kg/injection, schedule: Q01DX009 (ip), vehicle: Klucel (hydroxypropylcellulose) (HPC)
[4] = dose: 200.0 mg/kg/injection, schedule: Q04DX003 (ip), vehicle: Klucel (hydroxypropylcellulose) (HPC)
[5] = dose: 400.0 mg/kg/injection, schedule: Q01DX009 (ip), vehicle: Klucel (hydroxypropylcellulose) (HPC)
[6] = dose: 400.0 mg/kg/injection, schedule: Q04DX003 (ip), vehicle: Klucel (hydroxypropylcellulose) (HPC)
[7] = dose: 100.0 mg/kg/injection, schedule: Q04DX003 (ip), vehicle: saline with Tween-80
[8] = dose: 200.0 mg/kg/injection, schedule: Q04DX003 (ip), vehicle: saline with Tween-80
[9] = dose: 400.0 mg/kg/injection, schedule: Q04DX003 (ip), vehicle: saline with Tween-80
[10] = dose: 100.0 mg/kg/injection, schedule: Q01DX009 (ip), vehicle: saline with Tween-80
[11] = dose: 200.0 mg/kg/injection, schedule: Q01DX009 (ip), vehicle: saline with Tween-80
[12] = dose: 400.0 mg/kg/injection, schedule: Q01DX009 (ip), vehicle: saline with Tween-80
[13] = dose: 100.0 mg/kg/injection, schedule: Q01DX001 (ip), vehicle: saline

Measured: T/C

CCOC(=O)Cc1ccc([N+](=O)[O-])cc1
inactive: dose: 25.0 mg/kg/injection, schedule: Q04DX003 (ip), vehicle: Klucel (hydroxypropylcellulose) (HPC) 94 % of control | dose: 50.0 mg/kg/injection, schedule: Q04DX003 (ip), vehicle: Klucel (hydroxypropylcellulose) (HPC) 105 % of control | [1] 104 % of control and 105 % of control | dose: 150.0 mg/kg/injection, schedule: Q04DX003 (ip), vehicle: Klucel (hydroxypropylcellulose) (HPC) 107 % of control | dose: 225.0 mg/kg/injection, schedule: Q04DX003 (ip), vehicle: Klucel (hydroxypropylcellulose) (HPC) 100 % of control

CCCCCCCCCC(O)CC (centres undefined)
inactive: [2] 106 % of control | [1] 103 % of control | [3] 102 % of control | [4] 103 % of control | [5] 105 % of control | [6] 103 % of control

O=C(Nc1ccccc1Cl)Nc1cccc2ccccc12
inactive: dose: 100.0 mg/kg/injection, schedule: Q04DX002 (ip), vehicle: Klucel (hydroxypropylcellulose) (HPC) 105 % of control | dose: 200.0 mg/kg/injection, schedule: Q04DX002 (ip), vehicle: Klucel (hydroxypropylcellulose) (HPC) 102 % of control | dose: 400.0 mg/kg/injection, schedule: Q04DX002 (ip), vehicle: Klucel (hydroxypropylcellulose) (HPC) 98 % of control

CCOC(=O)c1cnc(SC)nc1Nc1ccccc1F
inactive: [7] 89 % of control | [8] 92 % of control

O=P(CCCc1ccccc1)(CCCc1ccccc1)Oc1cccc(C(F)(F)F)c1
inactive: [7] 90 % of control | [8] 92 % of control | [9] 101 % of control

COC(=O)C(OC(=O)n1ccnc1)(c1ccccc1)c1ccccc1
inactive: dose: 100.0 mg/kg/injection, schedule: Q04DX002 (ip), vehicle: gum acacia 112 % of control | dose: 200.0 mg/kg/injection, schedule: Q04DX002 (ip), vehicle: gum acacia 94 % of control | dose: 400.0 mg/kg/injection, schedule: Q04DX002 (ip), vehicle: gum acacia 97 % of control

CCOC(=O)c1cnn(-c2ccccc2)c1C
inactive: [2] 94 % of control | [1] 112 % of control | [3] 94 % of control | [4] 95 % of control | [5] 102 % of control | [6] 88 % of control

Cc1ccc(-c2nc3cc(Cl)ccc3c(=O)o2)cc1
inactive: [7] 105 % of control | [8] 102 % of control | [9] 94 % of control

COC(=N)Cc1ccc(OC)c(OC)c1
inactive: [10] 94 % of control | [11] 89 % of control | [12] 92 % of control

NCC(O)C(O)C(O)C(O)CO (centres undefined)
inactive: [13] 103 % of control | dose: 200.0 mg/kg/injection, schedule: Q01DX001 (ip), vehicle: saline 95 % of control

CC(=O)Nc1c(Cl)c(Cl)c2[nH]c(=O)c3cc(Cl)ccc3c2c1Cl
inactive: dose: 75.0 mg/kg/injection, schedule: Q01DX001 (ip), vehicle: carboxymethylcellulose (CMC) 87 % of control | dose: 150.0 mg/kg/injection, schedule: Q01DX001 (ip), vehicle: carboxymethylcellulose (CMC) 95 % of control | dose: 300.0 mg/kg/injection, schedule: Q01DX001 (ip), vehicle: carboxymethylcellulose (CMC) 88 % of control

CNc1ccc(OC)cc1
inactive: dose: 100.0 mg/kg/injection, schedule: Q01DX009 (ip), vehicle: other 95 % of control | dose: 100.0 mg/kg/injection, schedule: Q04DX003 (ip), vehicle: other 101 % of control | dose: 200.0 mg/kg/injection, schedule: Q01DX009 (ip), vehicle: other 111 % of control | dose: 200.0 mg/kg/injection, schedule: Q04DX003 (ip), vehicle: other 101 % of control | dose: 400.0 mg/kg/injection, schedule: Q01DX009 (ip), vehicle: other 124 % of control | dose: 400.0 mg/kg/injection, schedule: Q04DX003 (ip), vehicle: other 104 % of control

CN(c1ccccc1)S(=O)(=O)c1cccc([N+](=O)[O-])c1
inactive: [1] 103 % of control | [4] 94 % of control | [6] 101 % of control

O=[N+]([O-])c1cccc(Cl)c1O
inactive: dose: 100.0 mg/kg/injection, schedule: Q01DX001 (ip), vehicle: gum acacia 98 % of control | dose: 200.0 mg/kg/injection, schedule: Q01DX001 (ip), vehicle: gum acacia 100 % of control

O=[N+]([O-])c1cc(Br)cc(Br)c1S(=O)(=O)O
inactive: dose: 100.0 mg/kg/injection, schedule: Q01DX009 (ip), vehicle: saline 105 % of control | dose: 100.0 mg/kg/injection, schedule: Q04DX003 (ip), vehicle: saline 103 % of control | dose: 200.0 mg/kg/injection, schedule: Q01DX009 (ip), vehicle: saline 97 % of control | dose: 200.0 mg/kg/injection, schedule: Q04DX003 (ip), vehicle: saline 110 % of control | dose: 400.0 mg/kg/injection, schedule: Q01DX009 (ip), vehicle: saline 108 % of control | dose: 400.0 mg/kg/injection, schedule: Q04DX003 (ip), vehicle: saline 108 % of control

CCOC(=O)N(CCCl)C(=O)C(C)C
inactive: [10] 92 % of control | [11] 96 % of control | [12] 94 % of control

c1ccc(Oc2nnc3c4ccccc4ccn23)cc1
inactive: dose: 100.0 mg/kg/injection, schedule: Q01DX001 (ip), vehicle: carboxymethylcellulose (CMC) 98 % of control | dose: 200.0 mg/kg/injection, schedule: Q01DX001 (ip), vehicle: carboxymethylcellulose (CMC) 98 % of control | dose: 400.0 mg/kg/injection, schedule: Q01DX001 (ip), vehicle: carboxymethylcellulose (CMC) 98 % of control

[CH3][Pb]([CH3])([CH3])[O]P(=O)(O)c1ccccc1
inactive: dose: 3.12 mg/kg/injection, schedule: Q04DX002 (ip), vehicle: saline 98 % of control | dose: 6.25 mg/kg/injection, schedule: Q04DX002 (ip), vehicle: saline 103 % of control | dose: 12.5 mg/kg/injection, schedule: Q04DX002 (ip), vehicle: saline 98 % of control and 101 % of control

Nc1ncn(C2OC(CO)C(O)C2O)n1 (centres undefined)
inactive: dose: 100.0 mg/kg/injection, schedule: Q01DX005 (ip), vehicle: saline 105 % of control | dose: 200.0 mg/kg/injection, schedule: Q01DX005 (ip), vehicle: saline 103 % of control

COc1ccc2c(c1)C1(C)CCCC(C)C1=CC2=O (centres undefined)
inactive: dose: 25.0 mg/kg/injection, schedule: Q01DX001 (ip), vehicle: other 100 % of control | dose: 50.0 mg/kg/injection, schedule: Q01DX001 (ip), vehicle: other 100 % of control | dose: 100.0 mg/kg/injection, schedule: Q01DX001 (ip), vehicle: other 97 % of control

C=CCc1ccc(OC(=O)Nc2cccc(OC)c2)c(OC)c1
inactive: [2] 106 % of control | [3] 98 % of control | [5] 88 % of control

C[S+]1CCCCC1
inactive: dose: 50.0 mg/kg/injection, schedule: Q01DX001 (ip), vehicle: saline 96 % of control | [13] 100 % of control

COc1ccc(Cl)cc1NC(=O)Oc1ccc2ccccc2c1
inactive: dose: 100.0 mg/kg/injection, schedule: Q01DX001 (ip), vehicle: saline with Tween-80 89 % of control | [10] 98 % of control and 100 % of control | [7] 91 % of control | dose: 200.0 mg/kg/injection, schedule: Q01DX001 (ip), vehicle: saline with Tween-80 100 % of control | [11] 98 % of control and 92 % of control | [8] 96 % of control | dose: 400.0 mg/kg/injection, schedule: Q01DX001 (ip), vehicle: saline with Tween-80 96 % of control | [12] 100 % of control and 91 % of control | [9] 103 % of control
